For the experiment, the target named is 5'-nucleotidase (Homo sapiens, UniProt P21589). Kind of experiment: Enzyme Activity In Vitro Assay: I. Experimental Materials and Equipment1. Malachite green phosphate detection kit (R & D Systems, Cat #, DY996)2. Recombinant human 5′-nucleotidase (CD73) (R & D Systems, Cat #, 5795-EN)3. HEPES buffer (Gibco, Cat #, 15630-080)4. CMP (Sigma, Cat #, C1006)5. DMSO (Fisher Chemical, Cat #, D128-1)6. NaCl 5M (Boston Bioproducts, Cat #, BM-244)7.384-well plate (Fisher, Cat #, 5795-EN)8. TECAN plate reader (TECAN)II. Experimental ProcedureCompounds are first dissolved in DMSO to 10 mM as a stock solution. When determining the IC50 of the compound, prepare 3-fold serial dilutions with a highest concentration of 125 μM for a total of 12 concentration points and ensure each dilution containing equal amount of DMSO. In each well of 384-well plate, 0.34 nM of recombinant human 5′-nucleotidase (CD73) was pre-incubated at 37° C. for 2 hours with the compounds tested in assay buffer containing 20 mM HEPES buffer (pH 7.4), 137 mM NaCl, 0.001% Tween 20. The final reaction volume of the reaction in each well was 12 μL. The highest concentration of compound was 125 μM and the DMSO concentration was 1.25%. After pre-incubation, 3 μL of CMP dissolved in assay buffer was added to each reaction. The final CMP concentration was 45 μM. The reaction was incubated at 37° C. for 15 minutes. Then 3 μL of Malachite Green Reagent A was added to each reaction. […].
5'-nucleotidase, sequence (P21589 whole entry): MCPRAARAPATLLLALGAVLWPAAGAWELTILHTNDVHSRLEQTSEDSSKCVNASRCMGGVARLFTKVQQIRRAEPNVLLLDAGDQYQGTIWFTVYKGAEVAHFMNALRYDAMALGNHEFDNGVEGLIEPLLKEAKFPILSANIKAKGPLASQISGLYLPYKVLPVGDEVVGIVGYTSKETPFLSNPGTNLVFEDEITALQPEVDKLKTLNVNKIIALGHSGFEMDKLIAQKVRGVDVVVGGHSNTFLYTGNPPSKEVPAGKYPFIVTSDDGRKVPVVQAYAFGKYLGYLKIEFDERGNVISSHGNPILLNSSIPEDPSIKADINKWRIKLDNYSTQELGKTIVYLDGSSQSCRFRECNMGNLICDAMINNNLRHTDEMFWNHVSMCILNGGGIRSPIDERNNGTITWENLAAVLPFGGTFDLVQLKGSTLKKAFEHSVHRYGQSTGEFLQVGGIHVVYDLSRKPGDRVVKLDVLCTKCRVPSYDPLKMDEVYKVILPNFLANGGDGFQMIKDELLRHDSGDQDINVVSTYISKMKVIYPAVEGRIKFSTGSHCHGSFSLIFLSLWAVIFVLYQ

With `CC(OC(=O)C(C)(C)C)OP(=O)(COC[C@H]1O[C@@H](n2ncc3c(N4CC5(CCc6ccccc65)C4)nc(Cl)nc32)[C@H](O)[C@@H]1O)OC(C)OC(=O)C(C)(C)C` (stereo partly specified), the IC50 (commonly the concentration at which inhibition is half-maximal) was found to be 270 nM.

Source of the values: ChEMBL document CHEMBL5729111, “CD73 inhibitors and therapeutic uses thereof” (2022).
